Data as given in patent US11952353B2, “STAT3 transcription factor inhibitors and methods of using the same” (The Regents of the University of Colorado, A Body Corporate, priority 2018, dated 2024).

Experiments:
[1] = target: T1, SH2 domain of STAT3 (Homo sapiens, UniProt P40763); experiment: Fluorescence polarization (FP) assay; assay type: binding; conditions: 25 μM
T1 construct: 100 nM of full length GST-tagged human STAT3 protein (Abcam); purchased Abcam
Experimental: FP assay was conducted as previously reported (Steffanie L. Furtek, S. L., et al., Evaluation of quantitative assays for the identification of direct signal transducer and activator of transcription 3 (STAT3) inhibitors (November 2016) Oncotarget 7(47): 77998-78008). Briefly, assay buffer (10 mM HEPES, pH 7.5, 50 mM NaCl, 1 mM EDTA, 2 mM DTT, and 0.01% Triton-X100), 100 nM of full length GST-tagged human STAT3 protein (Abcam), and varying concentrations of compounds were incubated for 1 hour at room temperature with mild agitation in 96-well half area black plates (Corning). Fluorescent peptide 5-FAM-G(pTyr)LPQTV-CONH2 (Genscript) was added to each assay well at a concentration of 10 nM. Final well volumes were 30 μL. Following incubation with fluorescent peptide for 30 minutes at room temperature with mild agitation, plates were examined using FP Fluorescein Dual module with excitation filter FITC FP 480 and emission filter FITC FP P-pol535 and S-pol535. Data was expressed as percent control using the equation % C=(mPdrug−mPfree)/(mPSTAT3−mPfree)*100 where mP is the value for FP measurement.

[2] = target: T2, full-length, GST-tagged human STAT3 protein (Homo sapiens, UniProt P40763); experiment: Recombinant STAT3 ELISA (STAT3/DNA binding); assay type: biochemical; conditions: 2 μM; for mean value, % of STAT3 only control: 1 hour incubation
T2 construct: full-length, GST-tagged human STAT3 protein and various concentrations of compounds
Experimental: Measurement of STAT3 binding to DNA was performed using a TransAM STAT3 ELISA kit (Active Motif) and according to the previously used protocol. Briefly, full-length, GST-tagged human STAT3 protein and various concentrations of compounds to be evaluated or niclosamide were incubated in Complete Lysis Buffer at a final volume of 20 μL containing 0.1 μg recombinant protein for 1 hour with mild agitation. Following incubation with STAT3 inhibitors, samples were added to corresponding ELISA wells with 30 μL of Complete Binding Buffer and inhibition of STAT3 protein binding to the DNA consensus sequence was determined. Data was reported as percent of control.

[3] = test system: HeLa cells; experiment: MTT cell viability assay; assay type: cell-based; conditions: 24 h; for EC50: Homo sapiens
Experimental: HeLa cells were plated in 96-well plates at a density of 5,000 cells/well in 100 μL of media and were incubated for 24 hours. Media was then aspirated and replaced with 100 μL of media containing various concentrations of compounds ranging from 500 μM-0.0019 μM. Cells were exposed to compounds for 24 hours, following which the media was aspirated and 50 μL MTT solution diluted in media was added to each well at a final concentration of 1 mg/mL. MTT was exposed to cells for 4 hours, aspirated, and then 100 μL of DMSO was added to each well. Plates were agitated for 10 minutes prior to reading absorbance at 540 nm in a microplate reader. Data was normalized and reported as percent of control.

[4] = target: T3, STAT3 (Homo sapiens, UniProt P40763); experiment: Cell-based STAT3 DNA-binding ELISA; conditions: HeLa; for reduction of STAT3/DNA-binding: 24 h, 1 μM; for EC50: 24 h dose response
T3 construct: endogenous in cells; host or cells: HeLa
Experimental: Nuclear extracts were prepared using a nuclear extraction kit (Signosis) according to product directions. Briefly, 100 mm dishes of cells were washed with 1×PBS and then 1 mL of 1× Buffer I was added and dishes were rocked on ice for 10 minutes. Cells were released from the dish using a sterile scraper and centrifuged at 1200 rpm for 5 minutes at 4° C. The supernatant was discarded and the pellets were resuspended in 1× Buffer II and shaken on ice for 2 hours. Samples were centrifuged at 1200 rpm for 5 minutes at 4° C. and the resulting supernatants containing the nuclear extracts were placed in new microcentrifuge tubes. Protein concentrations of samples were determined via Bradford assay.
HeLa cells were plated at 1 million cells per 100 mm dish and incubated for approximately 72 hours, resulting in serum-starved confluent plates. Plates were then washed with PBS and fresh media was added containing concentrations of compounds to be evaluated or niclosamide for 24 hours. For single concentrations of compounds, cells were treated with 1 μM of compounds, as derived from 24 hour MTT assay EC50 value for niclosamide. Dose-responses of niclosamide, compound 8, and compound 17 were similarly prepared at concentrations ranging from 2-0.0156 μM. Following incubation with compounds, cellular nuclear extracts were prepared.
Measurement of STAT3 binding to DNA was performed using the TransAM STAT3 ELISA kit. Sample wells contained 20 μg of nuclear extracts from treated HeLa cells diluted in 20 μL of Complete Lysis Buffer. The ELISA was then performed as described in the recombinant ELISA section. Data was normalized and reported as percent of control.

[5] = test system: HeLa cells; experiment: Caspase 3/7 assay (apoptosis); assay type: cell-based; conditions: 24 and 48 hours
Experimental: The effect of STAT3 inhibitor on caspase activity was evaluated using a Caspase-Glo 3/7 kit (Promega) according to product directions. Briefly, HeLa cells were plated in white-walled, clear bottom 96-well plates at a density of 5,000 cells/well in 100 μL of media and were incubated for 24 hours. Media was then aspirated and replaced with 100 μL of media containing 1 μM or 10 μM of STAT3 inhibitor. Cells were exposed to compounds for 24 and 48 hours, following which plates were allowed to equilibrate to room temperature. Reconstituted caspase reagent was added to sample wells in a 1:1 ratio, mixed, and incubated in the dark for 1 hour. Luminescence was read using a microplate reader.

[6] = test system: Leukemia Stem cells (LSCs); experiment: Leukemia stem cell viability (apoptosis markers, flow cytometry); assay type: cell-based; conditions: 24 hours
Experimental: (§1) Leukemia Stem cells (LSCs) were incubated with compound 17 (STAT3i) for 24 hours and cell viability was measured. […] Primary human AML cells were treated with compound 17 (STAT3i). The cells were then cultured on methylcellulose and colony formation was measured. […] STAT3 was knocked down in primary human AML samples using shRNA methods (shSTAT3).

[7] = test system: Primary human AML cells; experiment: Colony formation on methylcellulose; assay type: cell-based
Experimental: as §1

[8] = test system: Cord-blood derived CD34+ normal hematopoietic stem cells; experiment: Viability of normal hematopoietic stem cells; assay type: cell-based
Experimental: (§2) Cord-blood derived CD34+ normal hematopoietic stem cells were treated with compound 17 (STAT3i).

[9] = test system: Cord-blood derived CD34+ normal hematopoietic stem cells; experiment: Colony formation of normal hematopoietic stem cells; assay type: cell-based
Experimental: as §2

[10] = test system: Primary AML cells; experiment: Engraftment of treated primary AML cells transplanted into immunodeficient mice; assay type: in vivo; conditions: then transplanted into immunodeficient mice
Experimental: Primary AML cells were treated with compound 17 (STAT3i) and transplanted into immunodeficient mice.

[11] = test system: Leukemia Stem cells (LSCs); experiment: Seahorse assay of oxygen consumption; assay type: cell-based; conditions: four hours incubation
Experimental: (§3) Leukemia stem cells (LSCs) were incubated with compound 17 (STAT3i) for four hours. Seahorse assays were then used to measure oxygen consumption. […] Flow cytometry analysis verified that there was no cell death at the time of RNAseq analysis. FIG. 19 is a chart showing the expression changes of various genes involved in OXPHOS after incubation with compound 17. FIG. 20 is an image of western blot analysis of the expression of electron transport chain genes after incubating cells with compound 17.

[12] = test system: Leukemia Stem cells (LSCs); experiment: RNAseq, qPCR and western blot expression analysis in LSCs; assay type: cell-based
Experimental: as §3
Leukemia stem cells (LSCs) were incubated with compound 17 (STAT3i) and RNAseq analysis was subsequently performed. […] Knockdown of Myc in LSCs using siRNA leads to a subsequent downregulation of the glutamine receptor SLC1A5 and a decrease in OXPHOS.

[13] = test system: Primary AML samples; experiment: Glutamine flux, ROS and western blot in primary AML samples; assay type: cell-based
Experimental: Primary AML samples were incubated with heavy labeled glutamine in flux experiments aimed at measuring TCA cycle metabolites. […] FIG. 22 is a graph showing that reactive oxygen species (ROS) is increased in AML cells that were treated with compound 17 (STAT3i).

[14] = target: T1, SH2 domain of STAT3; conditions: concentrations above 10 μM; cited from earlier work

T1 sequence (P40763 whole entry, the tested form may be a part): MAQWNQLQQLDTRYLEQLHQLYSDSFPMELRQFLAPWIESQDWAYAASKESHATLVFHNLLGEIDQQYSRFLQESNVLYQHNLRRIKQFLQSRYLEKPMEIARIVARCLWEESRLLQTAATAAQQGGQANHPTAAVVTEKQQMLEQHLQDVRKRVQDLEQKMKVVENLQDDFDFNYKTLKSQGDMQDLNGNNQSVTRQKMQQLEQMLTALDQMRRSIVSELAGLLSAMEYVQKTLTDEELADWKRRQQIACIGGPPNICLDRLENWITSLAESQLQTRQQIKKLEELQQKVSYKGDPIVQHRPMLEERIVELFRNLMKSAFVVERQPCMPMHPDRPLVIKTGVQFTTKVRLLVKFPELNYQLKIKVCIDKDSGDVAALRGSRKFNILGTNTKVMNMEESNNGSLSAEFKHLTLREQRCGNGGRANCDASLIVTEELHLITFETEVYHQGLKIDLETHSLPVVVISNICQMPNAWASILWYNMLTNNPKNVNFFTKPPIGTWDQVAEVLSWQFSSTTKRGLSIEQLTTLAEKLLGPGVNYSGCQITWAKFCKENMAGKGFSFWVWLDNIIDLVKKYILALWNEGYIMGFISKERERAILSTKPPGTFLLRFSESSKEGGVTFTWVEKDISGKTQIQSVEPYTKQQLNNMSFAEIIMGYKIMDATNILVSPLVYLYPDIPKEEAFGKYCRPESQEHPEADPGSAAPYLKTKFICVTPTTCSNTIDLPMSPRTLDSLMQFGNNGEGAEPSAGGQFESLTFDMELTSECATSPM
T3 sequence (P40763 whole entry): as the sequence (P40763 whole entry, the tested form may be a part) above
T2 sequence (P40763 whole entry): as the sequence (P40763 whole entry, the tested form may be a part) above

O=C(Nc1ccc([N+](=O)[O-])cc1Br)c1cc(Br)ccc1O [Compound 2, 5-Bromo-N-(2-bromo-4-nitrophenyl)-2-hydroxybenzamide]
affinity for the SH2 domain [1]: slight affinity for the SH2 domain

O=C(Nc1ccccc1Cl)c1cc(Cl)ccc1O [Compound 3, 5-Chloro-N-(2-chlorophenyl)-2-hydroxybenzamide]
reduction of recombinant STAT3/DNA-binding relative to niclosamide [2]: performed worse than niclosamide | mean value, % of STAT3 only control [2]: 80%

O=C(Oc1ccc([N+](=O)[O-])cc1Cl)c1cc(Cl)ccc1O [Compound 4, 2-Chloro-4-nitrophenyl 5-chloro-2-hydroxybenzoate]
reduction of recombinant STAT3/DNA-binding relative to niclosamide [2]: performed worse than niclosamide | mean value, % of STAT3 only control [2]: 76%

CN(C(=O)c1cc(Cl)ccc1O)c1ccc([N+](=O)[O-])cc1Cl [Compound 8, 5-Chloro-N-(2-chloro-4-nitrophenyl)-2-hydroxy-N-methylbenzamide]
reduction of recombinant STAT3/DNA-binding relative to niclosamide [2]: means less than or equal to niclosamide | EC50 [3]: 1150 ± 380 nM | reduction of STAT3/DNA-binding [4]: approx. 80% | EC50 [4]: 239 ± 39 nM | induction of apoptosis ([5]; 10 μM): time-dependent increase in apoptosis

O=C(Nc1ccc([N+](=O)[O-])cc1Cl)c1cc([N+](=O)[O-])ccc1O [Compound 9, N-(2-Chloro-4-nitrophenyl)-2-hydroxy-5-nitrobenzamide]
reduction of recombinant STAT3/DNA-binding relative to niclosamide [2]: means less than or equal to niclosamide

Nc1ccc(NC(=O)c2cc(N)ccc2O)c(Cl)c1 [Compound 10, 5-Amino-N-(4-amino-2-chlorophenyl)-2-hydroxybenzamide]
affinity for the SH2 domain [1]: slight affinity for the SH2 domain

O=C(Nc1ccc([N+](=O)[O-])cc1Cl)c1cc(Cl)c(-c2ccccc2)cc1O [Compound 14, 2-Chloro-N-(2-chloro-4-nitrophenyl)-5-hydroxy-[1,1′-biphenyl]-4-carboxamide]
affinity for the SH2 domain [1]: slight affinity for the SH2 domain

O=C(Nc1ccc([N+](=O)[O-])cc1Cl)c1cc(Cl)c(-c2ccco2)cc1O [Compound 17, 5-Chloro-N-(2-chloro-4-nitrophenyl)-4-(furan-2-yl)-2-hydroxybenzamide]
reduction of recombinant STAT3/DNA-binding relative to niclosamide [2]: means less than or equal to niclosamide | total cell viability [3]: did not drop below 50% until high concentrations | EC50 [3]: 315 ± 70 nM | reduction of STAT3/DNA-binding [4]: approx. 80% | EC50 [4]: 59 ± 11 nM | induction of apoptosis ([5]; 1 μM): time-dependent increase in apoptosis | cell viability of LSCs [6]: significant cell death | colony formation of primary human AML cells [7]: significant decrease in colony formation | viability of CD34+ normal hematopoietic stem cells [8]: not affected | colony formation of CD34+ normal hematopoietic stem cells [9]: not affected | engraftment of primary AML cells [10]: decreased engraftment | oxygen consumption [11]: decrease in oxygen consumption | expression of OXPHOS and mitochondrial matrix genes [12]: decrease in the expression | Myc expression ([12]; verified by qPCR and western blot): decreased | reactive oxygen species (ROS) ([13]; AML cells): increased | TCA cycle metabolites ([13]; heavy labeled glutamine flux): decrease in TCA cycle metabolites | SLCA15 expression ([13]; western blot): downregulated

O=C(Nc1ccc([N+](=O)[O-])cc1Cl)c1cc(Cl)ccc1Cl [Compound 18, 2,5-Dichloro-N-(2-chloro-4-nitrophenyl)benzamide]
reduction of recombinant STAT3/DNA-binding relative to niclosamide [2]: means less than or equal to niclosamide

O=C(Nc1ccc([N+](=O)[O-])cc1Cl)c1cc(Cl)ccc1O [niclosamide, reference compound]
EC50 [3]: 1000 nM | reduction of STAT3/DNA-binding [4]: approx. 80% | EC50 [4]: 179 ± 28 nM | induction of apoptosis ([5]; 1 μM): only a slight increase in apoptosis | induction of apoptosis ([5]; 10 μM): twice as much apoptosis

S3I-1757 [Compound S3I-1757]
inhibition of fluorescent peptide binding [14]: complete inhibition
